# Columns and labels:
# Assay in all cases: relative viability (nuclei count vs DMSO), 5 days (fraction); higher = more cells survive
# NCI-H3122 = tested on: NCI-H3122
# How it was run: (§1)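 Each reported value is a median over duplicate plates. It expresses relative viability: treated-well nuclei count divided by vehicle-well nuclei count. Lung cancer cell lines in 1536-well plates were dosed by pin tool a day after seeding, alone with one drug or with a fixed anchor-drug dose plus five library-drug doses (not always all listed) in √10 steps, and nuclei were counted after 5 days.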
# NCI-H1395 = tested on: NCI-H1395
# How it was run: as §1
# NCI-H460 = tested on: NCI-H460
# How it was run: as §1
# UMC-11 = tested on: UMC-11
# How it was run: as §1
# CAL-12T = tested on: CAL-12T
# How it was run: as §1
# LOU-NH91 = tested on: LOU-NH91
# How it was run: as §1
# RERF-LC-KJ = tested on: RERF-LC-KJ
# How it was run: as §1
# ChaGo-K-1 = tested on: ChaGo-K-1
# How it was run: as §1
# NCI-H2087 = tested on: NCI-H2087
# How it was run: as §1
# NCI-H1651 = tested on: NCI-H1651
# How it was run: as §1
# NCI-H2228 = tested on: NCI-H2228
# How it was run: as §1
# NCI-H1755 = tested on: NCI-H1755
# How it was run: as §1
# NCI-H2405 = tested on: NCI-H2405
# How it was run: as §1
# NCI-H1944 = tested on: NCI-H1944
# How it was run: as §1
# ABC-1 = tested on: ABC-1
# How it was run: as §1
# NCI-H1793 = tested on: NCI-H1793
# How it was run: as §1
# LC-2-ad = tested on: LC-2-ad
# How it was run: as §1
# NCI-H2170 = tested on: NCI-H2170
# How it was run: as §1
# LU99A = tested on: LU99A
# How it was run: as §1
# PC-3 [JPC-3] = tested on: PC-3 [JPC-3]
# How it was run: as §1
smiles,measurement,setting,value
CCN(CC)CCCCNc1ncc2cc(-c3cc(OC)cc(OC)c3)c(NC(=O)NC(C)(C)C)nc2n1 + CCNC(=O)c1noc(-c2cc(C(C)C)c(O)cc2O)c1-c1ccc(CN2CCOCC2)cc1 [Luminespib] (partner 0.01 µM),relative viability,NCI-H3122; first compound 0.01 µM,0.0914
same,relative viability,NCI-H3122; first compound 0.03162 µM,0.082
same,relative viability,NCI-H3122; first compound 0.1 µM,0.112
same,relative viability,NCI-H3122; first compound 0.3162 µM,0.0822
same,relative viability,NCI-H3122; first compound 1 µM,0.127
same,relative viability,NCI-H1395; first compound 0.01 µM,0.659
same,relative viability,NCI-H1395; first compound 0.03162 µM,0.878
same,relative viability,NCI-H1395; first compound 0.1 µM,0.662
same,relative viability,NCI-H1395; first compound 0.3162 µM,0.65
same,relative viability,NCI-H1395; first compound 1 µM,0.48
same,relative viability,NCI-H460; first compound 0.01 µM,0.0378
same,relative viability,NCI-H460; first compound 0.03162 µM,0.0357
same,relative viability,NCI-H460; first compound 0.1 µM,0.0341
same,relative viability,NCI-H460; first compound 0.3162 µM,0.0358
same,relative viability,NCI-H460; first compound 1 µM,0.0473
same,relative viability,UMC-11; first compound 0.01 µM,1.05
same,relative viability,UMC-11; first compound 0.03162 µM,1.08
same,relative viability,UMC-11; first compound 0.1 µM,1.25
same,relative viability,UMC-11; first compound 0.3162 µM,1.04
same,relative viability,UMC-11; first compound 1 µM,0.94
same,relative viability,CAL-12T; first compound 0.01 µM,0.63
same,relative viability,CAL-12T; first compound 0.03162 µM,0.338
same,relative viability,CAL-12T; first compound 0.1 µM,0.363
same,relative viability,CAL-12T; first compound 0.3162 µM,0.445
same,relative viability,CAL-12T; first compound 1 µM,0.347
same,relative viability,LOU-NH91; first compound 0.01 µM,0.338
same,relative viability,LOU-NH91; first compound 0.03162 µM,0.364
same,relative viability,LOU-NH91; first compound 0.1 µM,0.36
same,relative viability,LOU-NH91; first compound 0.3162 µM,0.421
same,relative viability,LOU-NH91; first compound 1 µM,0.356
same,relative viability,RERF-LC-KJ; first compound 0.01 µM,1.24
same,relative viability,RERF-LC-KJ; first compound 0.03162 µM,1.21
same,relative viability,RERF-LC-KJ; first compound 0.1 µM,1.84
same,relative viability,RERF-LC-KJ; first compound 0.3162 µM,1.35
same,relative viability,RERF-LC-KJ; first compound 1 µM,1.27
same,relative viability,ChaGo-K-1; first compound 0.01 µM,0.618
same,relative viability,ChaGo-K-1; first compound 0.03162 µM,0.638
same,relative viability,ChaGo-K-1; first compound 0.1 µM,0.727
same,relative viability,ChaGo-K-1; first compound 0.3162 µM,0.679
same,relative viability,ChaGo-K-1; first compound 1 µM,0.811
same,relative viability,NCI-H2087; first compound 0.01 µM,0.172
same,relative viability,NCI-H2087; first compound 0.03162 µM,0.154
same,relative viability,NCI-H2087; first compound 0.1 µM,0.161
same,relative viability,NCI-H2087; first compound 0.3162 µM,0.177
same,relative viability,NCI-H2087; first compound 1 µM,0.158
same,relative viability,NCI-H1651; first compound 0.01 µM,0.886
same,relative viability,NCI-H1651; first compound 0.03162 µM,0.875
same,relative viability,NCI-H1651; first compound 0.1 µM,0.779
same,relative viability,NCI-H1651; first compound 0.3162 µM,1.33
same,relative viability,NCI-H1651; first compound 1 µM,0.781
same,relative viability,NCI-H2228; first compound 0.01 µM,0.131
same,relative viability,NCI-H2228; first compound 0.03162 µM,0.109
same,relative viability,NCI-H2228; first compound 0.1 µM,0.173
same,relative viability,NCI-H2228; first compound 0.3162 µM,0.247
same,relative viability,NCI-H2228; first compound 1 µM,0.142
same,relative viability,NCI-H1755; first compound 0.01 µM,0.455
same,relative viability,NCI-H1755; first compound 0.03162 µM,0.694
same,relative viability,NCI-H1755; first compound 0.1 µM,0.458
same,relative viability,NCI-H1755; first compound 0.3162 µM,0.606
same,relative viability,NCI-H1755; first compound 1 µM,0.44
same,relative viability,NCI-H2405; first compound 0.01 µM,0.649
same,relative viability,NCI-H2405; first compound 0.03162 µM,0.644
same,relative viability,NCI-H2405; first compound 0.1 µM,0.76
same,relative viability,NCI-H2405; first compound 0.3162 µM,0.654
same,relative viability,NCI-H2405; first compound 1 µM,0.684
same,relative viability,NCI-H1944; first compound 0.01 µM,0.705
same,relative viability,NCI-H1944; first compound 0.03162 µM,0.747
same,relative viability,NCI-H1944; first compound 0.1 µM,0.762
same,relative viability,NCI-H1944; first compound 0.3162 µM,0.822
same,relative viability,NCI-H1944; first compound 1 µM,0.603
same,relative viability,ABC-1; first compound 0.01 µM,0.731
same,relative viability,ABC-1; first compound 0.03162 µM,0.405
same,relative viability,ABC-1; first compound 0.1 µM,0.832
same,relative viability,ABC-1; first compound 0.3162 µM,0.416
same,relative viability,ABC-1; first compound 1 µM,0.693
same,relative viability,NCI-H1793; first compound 0.01 µM,0.345
same,relative viability,NCI-H1793; first compound 0.03162 µM,0.198
same,relative viability,NCI-H1793; first compound 0.1 µM,0.166
same,relative viability,NCI-H1793; first compound 0.3162 µM,0.157
same,relative viability,NCI-H1793; first compound 1 µM,0.156
same,relative viability,LC-2-ad; first compound 0.01 µM,0.971
same,relative viability,LC-2-ad; first compound 0.03162 µM,1.12
same,relative viability,LC-2-ad; first compound 0.1 µM,1.21
same,relative viability,LC-2-ad; first compound 0.3162 µM,1.04
same,relative viability,LC-2-ad; first compound 1 µM,1.11
same,relative viability,NCI-H2170; first compound 0.01 µM,0.446
same,relative viability,NCI-H2170; first compound 0.03162 µM,0.857
same,relative viability,NCI-H2170; first compound 0.1 µM,0.668
same,relative viability,NCI-H2170; first compound 0.3162 µM,0.801
same,relative viability,NCI-H2170; first compound 1 µM,0.937
same,relative viability,LU99A; first compound 0.01 µM,0.301
same,relative viability,LU99A; first compound 0.03162 µM,0.251
same,relative viability,LU99A; first compound 0.1 µM,0.197
same,relative viability,LU99A; first compound 0.3162 µM,0.25
same,relative viability,LU99A; first compound 1 µM,0.27
same,relative viability,PC-3 [JPC-3]; first compound 0.01 µM,0.814
same,relative viability,PC-3 [JPC-3]; first compound 0.03162 µM,0.738
same,relative viability,PC-3 [JPC-3]; first compound 0.1 µM,0.725
same,relative viability,PC-3 [JPC-3]; first compound 0.3162 µM,0.746
same,relative viability,PC-3 [JPC-3]; first compound 1 µM,0.662

# Reference: the supplement of paper PMC10307832
